The values that follow are results of earlier work, collected in patent US6627219B2, “Oily capsule preparation and the method for preparing same” (Pharmaceutical Industry Technology and Development Center, priority 2000, dated 2003).

The structures appear in SMILES notation. Where two headings read alike, the source gives them in different places.

Assay in series [1]: not given
This is another data set of the same source.

On to `COc1ccc2[nH]c([S+]([O-])Cc3ncc(C)c(OC)c3C)nc2c1` (stereo not drawn) [Omeprazole, 5-methoxy-2(((4-methoxy-3,5-dimethyl-2-pyridinyl)methyl)sulfinyl)1H-benzimidazole], for which the solubility in water result was “hardly soluble in water”. Besides, in series [1] (basic medium of a pH higher than 7), the stability entry is listed as “stable”. For the same compound, the stability result in series [1] (neutral or acid medium) is “easily degraded or denatured”.
